Measured values taken from PubChem BioAssay (NCI).
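Cultured in 96-well plates, cells were exposed to test compound for 48 hours across five concentrations. The concentration for full growth arrest is given as TGI.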

Columns and labels:
Assay in all cases: DTP human tumour cell line panel, 48 h
ACHN renal = test system: ACHN renal
DU-145 prostate = test system: DU-145 prostate
CAKI-1 renal = test system: CAKI-1 renal
A498 renal = test system: A498 renal
SK-MEL-2 melanoma = test system: SK-MEL-2 melanoma
OVCAR-4 ovarian = test system: OVCAR-4 ovarian
NCI/ADR-RES ovarian = test system: NCI/ADR-RES ovarian
MDA-MB-435 = test system: MDA-MB-435
U251 CNS = test system: U251 CNS
HCT-15 colon = test system: HCT-15 colon

SMILES | TGI (ACHN renal) | TGI (DU-145 prostate) | TGI (CAKI-1 renal) | TGI (A498 renal) | TGI (SK-MEL-2 melanoma) | TGI (OVCAR-4 ovarian) | TGI (NCI/ADR-RES ovarian) | TGI (MDA-MB-435) | TGI (U251 CNS) | TGI (HCT-15 colon)
O=C1c2cccc3cccc(c23)C(=O)N1CCCNOCCONCCCN1C(=O)c2cccc3cccc(c23)C1=O | > 100 µM | > 100 µM | > 100 µM | > 100 µM | > 100 µM | > 100 µM | > 100 µM | > 100 µM | > 100 µM | > 100 µM
COc1ccc(OC)c2c1C1CCC(=O)N1CN2C(C)=O (configuration not stated) | > 100 µM | > 100 µM | > 100 µM | > 100 µM | > 100 µM | > 100 µM | > 100 µM | > 100 µM | > 100 µM | > 100 µM
Cc1c(NC2(C)C(=O)N(/N=C/c3ccccc3)N=C2c2ccccc2)n[nH]c1-c1ccccc1 (configuration not stated) | > 100 µM | > 100 µM | > 100 µM | > 100 µM | > 100 µM | > 100 µM | > 100 µM | > 100 µM | > 100 µM | > 100 µM
COc1ccc(C2C(C#N)=C(S)N(C3OC(CO)C(O)C(O)C3O)C(c3ccccc3)=C2C(C)=O)cc1 (configuration not stated) | > 100 µM | > 100 µM |  | > 100 µM | > 100 µM |  | > 100 µM | > 100 µM | > 100 µM | > 100 µM
COC(=O)C1(Cc2ccccc2)Cc2ccccc2C1 | > 100 µM | > 100 µM | 65.4 µM |  | 25.8 µM | > 100 µM | 69.2 µM | 41.8 µM | 73.5 µM | > 100 µM
C[n+]1c2ccccc2c(C(=O)Nc2ccc(S(=O)(=O)N=C(N)N)cc2)c2ccccc21 | > 100 µM | > 100 µM | > 100 µM | > 100 µM | > 100 µM | > 100 µM | > 100 µM | > 100 µM | > 100 µM | > 100 µM
Cc1ccc(-c2n[nH]c(=O)[nH]2)cc1[N+](=O)[O-] | > 100 µM | > 100 µM | > 100 µM | > 100 µM | > 100 µM | > 100 µM | > 100 µM | > 100 µM | > 100 µM | > 100 µM
C=C(C)C1CC=C(C)C2(C1)OCC(C)(C)C(C)O2 (configuration not stated) | 40.9 µM | > 100 µM | 36.7 µM | 28.9 µM | 34.2 µM | 41.1 µM | 37.5 µM | 48 µM | 31 µM | 33.9 µM
O=c1[nH]c(Nc2cccc(Cl)c2)nc2nc[nH]c12 | > 100 µM | > 100 µM | > 100 µM | > 100 µM | > 100 µM | > 100 µM | > 100 µM | > 100 µM | > 100 µM | > 100 µM
O=C(N[C@H]1c2ccsc2/C(=N/O)[C@H]1O)C(F)(F)F |  | > 100 µM | > 100 µM | > 100 µM | > 100 µM |  | > 100 µM | > 100 µM | > 100 µM | > 100 µM
CC(=O)c1cc2c(s1)C(=O)c1ccccc1C2=O | 4.02 µM | 12 µM | 37 µM | > 66.8 µM | 15.5 µM | 57 µM | 6.17 µM | 2.21 µM | 17 µM | 
S=C(S)NCC1CCC(CNC(=S)S)CC1 (configuration not stated) | 39.2 µM | 63.4 µM | 30.6 µM | > 100 µM | 58.3 µM | > 100 µM | > 100 µM | 61.4 µM | 43 µM | 65 µM
COc1cc2c(/C=C3/C(=O)N(c4ccccc4)c4ccccc43)c(Cl)[nH]c2cc1C | > 49.2 µM | 9.82 µM | > 59.5 µM | > 71.4 µM | 8.25 µM | 6.55 µM | 6.49 µM | 3.55 µM | > 33.3 µM | 11.4 µM
COc1ccc(/C=C2\N=C(c3ccccc3)N(C3Nc4cc5c(cc4S3)NC(N3C(=O)/C(=C/c4ccc(OC)cc4)N=C3c3ccccc3)S5)C2=O)cc1 (configuration not stated) | > 100 µM | > 100 µM | > 100 µM | > 100 µM | 97.5 µM | > 100 µM | 48 µM | > 100 µM | 63.7 µM | > 100 µM
CCCCOCn1c(=O)[nH]c(=O)c2cc(Br)ccc21 | 42.1 µM | > 100 µM | 46.9 µM | > 100 µM | > 100 µM | > 100 µM | 40.3 µM | > 100 µM | > 100 µM | > 100 µM
CC(C)CNC(=O)Cn1c(-c2ccccc2)cc2ccccc21 | > 100 µM | > 100 µM | > 100 µM |  | > 100 µM | > 100 µM | > 100 µM | > 100 µM | > 100 µM | > 100 µM
COC(=O)[C@@H]1C[C@@]2(C3C=CN(C(=O)C(F)(F)F)C=C3)c3ccccc3N(C(=O)C(F)(F)F)[C@H]2N1C(=O)OC | > 100 µM | > 100 µM | > 100 µM | > 100 µM |  | > 100 µM | > 100 µM | > 100 µM | > 100 µM | > 100 µM
O=c1oc2ccc(Cl)cc2cc1-c1cn2cc(Cl)ccc2n1 | > 100 µM | > 100 µM | > 100 µM |  | > 100 µM | > 100 µM | > 85.9 µM | 1.18 µM | > 100 µM | > 100 µM
c1ccc2c(Cc3nnc4sc(SSc5nn6c(Cc7c[nH]c8ccccc78)nnc6s5)nn34)c[nH]c2c1 | > 100 µM | 67.4 µM | 62.6 µM | 44.2 µM |  | > 100 µM | 44.4 µM | 47.7 µM | 58.6 µM | 53.6 µM
CN(C)CCCOCCn1c2c(c3ccccc31)CCCC2 | 29 µM | 67.7 µM | 31.5 µM |  | 26.5 µM | 44.3 µM | 35.2 µM | 34.2 µM | 41.8 µM | 30.5 µM
COc1ccc2nc3cc(Cl)ccc3c(NCCNCCCNC(=O)c3cc(-c4ccccc4)nc4ccccc34)c2c1 | > 100 µM | > 100 µM | > 100 µM | > 100 µM |  | > 100 µM | > 100 µM | > 100 µM | > 100 µM | > 100 µM
O=c1[nH]c(N/N=C\C(O)C(O)C(O)CO)nc2ccccc12 (configuration not stated) | > 100 µM | > 100 µM | > 100 µM | > 100 µM | > 100 µM |  | > 100 µM | > 100 µM | > 100 µM | > 100 µM
